In patent publication US20230024442A1, “BIFUNCTIONAL COMPOUNDS FOR GRADING BTK VIA UBIQUITIN PROTEOSOME PATHWAY” (NURIX THERAPEUTICS, INC., priority 2019, published 2023):

target: T1, BTK (Homo sapiens, UniProt Q06187); assay: Cellular BTK HTRF Assay (BTK levels in Ramos cells); assay type: cell-based; settings: Ramos cells, 50,000 cells, incubated four hours at 37° C.; BTK levels by Cisbio Total-BTK HTRF relative to DMSO-treated cells
T1 construct: endogenous in cells; host or cells: Ramos (ATCC CRL-1596)
T1 sequence (Q06187 whole entry): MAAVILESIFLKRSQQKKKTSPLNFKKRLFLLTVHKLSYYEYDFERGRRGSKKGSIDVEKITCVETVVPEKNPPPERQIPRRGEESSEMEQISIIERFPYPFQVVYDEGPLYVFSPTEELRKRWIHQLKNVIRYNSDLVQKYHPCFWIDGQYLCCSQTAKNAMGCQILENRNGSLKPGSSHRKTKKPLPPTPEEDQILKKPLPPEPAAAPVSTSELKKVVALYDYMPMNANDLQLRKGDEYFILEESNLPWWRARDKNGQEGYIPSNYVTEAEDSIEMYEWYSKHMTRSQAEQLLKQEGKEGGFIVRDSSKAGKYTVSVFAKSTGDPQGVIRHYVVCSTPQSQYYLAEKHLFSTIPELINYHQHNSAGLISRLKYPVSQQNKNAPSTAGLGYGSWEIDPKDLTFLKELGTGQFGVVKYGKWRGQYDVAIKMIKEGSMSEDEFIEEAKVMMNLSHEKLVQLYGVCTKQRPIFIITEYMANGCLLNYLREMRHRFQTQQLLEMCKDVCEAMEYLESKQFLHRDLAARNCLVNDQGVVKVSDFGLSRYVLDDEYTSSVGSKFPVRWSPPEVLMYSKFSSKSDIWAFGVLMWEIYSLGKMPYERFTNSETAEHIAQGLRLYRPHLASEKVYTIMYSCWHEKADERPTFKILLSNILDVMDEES
Protocol: Ramos (CRL-1596) cells were obtained from American Type Culture Collection and were grown in RPMI-1640 media (ATCC, 30-2001) supplemented with 10% heat-inactivated FBS (Corning Premium Fetal Bovine Serum from Fisher, MT35015CV).
Compounds of the present invention were added to 50,000 Ramos cells in round-bottom 96 well plates with a final DMSO concentration of […] and were incubated at 37° C. 5% CO2 for four hours. BTK levels were determined using Cisbio Total-BTK HTRF ([…] Time-Resolved Fluorescence) kit (63ADK064PEG) according to manufacturer's protocol. Briefly, cells were incubated in 1× supplied lysis buffer for 30 minutes. In an opaque white low volume 96 well plate (Cisbio, 66PL96005), cell lysate was combined with two different specific BTK antibodies, one conjugated with Eu^3+-Cryptate FRET donor and one conjugated with d2 FRET acceptor. Assay controls include wells containing cell lysate with only the Eu^3+-Cryptate FRET donor antibody and wells containing both HTRF antibodies and lysis buffer without cells or control lysate provided by Cisbio. HTRF ratio was calculated as (acceptor signal at 665 nm/donor signal at 620 nm)×10^4. Background HTRF levels were determined from the control well containing the donor, but no acceptor, antibody. Background HTRF levels were subtracted from all samples. Readouts were reported as HTRF levels relative to HTRF levels of DMSO-treated cells. Four-parameter non-linear regressions were performed in GraphPad Prism 7.02 to obtain DC50 values. DC50 values are provided in Table 7, wherein A<1 nM, 1 nM≤B≤10 nM, and 10 nM<C<1 μM.

| DC50 [nM] | SMILES |
| --- | --- |
| 1 to 10 | C[C@H]1CN(C(=O)CCOCCCc2cccc3c2C(=O)N(C2CCC(=O)NC2=O)C3=O)CCN1c1ccc(Nc2cc(-c3ccnc(N4CCn5c(cc6c5CC(C)(C)C6)C4=O)c3CO)cn(C)c2=O)nc1 (stereo partly drawn) [Compound 28] |
| 1 to 10 | C[C@@H]1CN(C(=O)CCCN2CCN(c3ccc4c(c3)C(=O)N(C3CCC(=O)NC3=O)C4=O)CC2)CCN1c1ccc(Nc2cc(-c3ccnc(N4CCn5c(cc6c5CC(C)(C)C6)C4=O)c3CO)cn(C)c2=O)nc1 (stereo partly drawn) [Compound 56] |
| 1 to 10 | C[C@H]1CN(C(=O)CNc2cccc3c2C(=O)N(C2CCC(=O)NC2=O)C3=O)CCN1c1ccc(Nc2cc(-c3ccnc(N4CCn5c(cc6c5CC(C)(C)C6)C4=O)c3CO)cn(C)c2=O)nc1 (stereo partly drawn) [Compound 35] |
| 1 to 10 | C[C@H]1CN(C(=O)CCOCCCc2cccc3c2CN(C2CCC(=O)NC2=O)C3=O)CCN1c1ccc(Nc2cc(-c3ccnc(N4CCn5c(cc6c5CC(C)(C)C6)C4=O)c3CO)cn(C)c2=O)nc1 (stereo partly drawn) [Compound 43] |
| 1 to 10 | C[C@H]1CN(C(=O)CCCCc2cccc3c2CN(C2CCC(=O)NC2=O)C3=O)CCN1c1ccc(Nc2cc(-c3ccnc(N4CCn5c(cc6c5CC(C)(C)C6)C4=O)c3CO)cn(C)c2=O)nc1 (stereo partly drawn) [Compound 38] |
| 1 to 10 | C[C@H]1CN(C(=O)CCCc2cccc3c2CN(C2CCC(=O)NC2=O)C3=O)CCN1c1ccc(Nc2cc(-c3ccnc(N4CCn5c(cc6c5CC(C)(C)C6)C4=O)c3CO)cn(C)c2=O)nc1 (stereo partly drawn) [Compound 33] |
| 1 to 10 | C[C@@H]1CN(C(=O)NCCCCCc2cccc3c2CN(C2CCC(=O)NC2=O)C3=O)CCN1c1ccc(Nc2cc(-c3ccnc(N4CCn5c(cc6c5CC(C)(C)C6)C4=O)c3CO)cn(C)c2=O)nc1 (stereo partly drawn) [Compound 46] |
| 10 to 1000 | C[C@H]1CN(C(=O)CCNc2cccc3c2C(=O)N(C2CCC(=O)NC2=O)C3=O)CCN1c1ccc(Nc2cc(-c3ccnc(N4CCn5c(cc6c5CC(C)(C)C6)C4=O)c3CO)cn(C)c2=O)nc1 (stereo partly drawn) [Compound 36] |
| 1 to 10 | C[C@H]1CN(C(=O)CN2CCN(CCc3cccc4c3CN(C3CCC(=O)NC3=O)C4=O)CC2)CCN1c1ccc(Nc2cc(-c3ccnc(N4CCn5c(cc6c5CC(C)(C)C6)C4=O)c3CO)cn(C)c2=O)nc1 (stereo partly drawn) [Compound 26] |
| 1 to 10 | C[C@H]1CN(C(=O)CN2CCN(CCCc3cccc4c3CN(C3CCC(=O)NC3=O)C4=O)CC2)CCN1c1ccc(Nc2cc(-c3ccnc(N4CCn5c(cc6c5CC(C)(C)C6)C4=O)c3CO)cn(C)c2=O)nc1 (stereo partly drawn) [Compound 30] |
| 1 to 10 | C[C@@H]1CN(C(=O)N(C)CCOCCOCCOCCOCCCc2cccc3c2CN(C2CCC(=O)NC2=O)C3=O)CCN1c1ccc(Nc2cc(-c3ccnc(N4CCn5c(cc6c5CC(C)(C)C6)C4=O)c3CO)cn(C)c2=O)nc1 (stereo partly drawn) [Compound 44] |
| 1 to 10 | C[C@@H]1CN(C(=O)NCCCCCCOCCCc2cccc3c2CN(C2CCC(=O)NC2=O)C3=O)CCN1c1ccc(Nc2cc(-c3ccnc(N4CCn5c(cc6c5CC(C)(C)C6)C4=O)c3CO)cn(C)c2=O)nc1 (stereo partly drawn) [Compound 48] |
| 1 to 10 | C[C@H]1CN(C(=O)CCOCCNc2cccc3c2C(=O)N(C2CCC(=O)NC2=O)C3=O)CCN1c1ccc(Nc2cc(-c3ccnc(N4CCn5c(cc6c5CC(C)(C)C6)C4=O)c3CO)cn(C)c2=O)nc1 (stereo partly drawn) [Compound 55] |
| 1 to 10 | C[C@H]1CN(C(=O)N(C)CCOCCOCCOCCOCCOCCCc2cccc3c2CN(C2CCC(=O)NC2=O)C3=O)CCN1c1ccc(Nc2cc(-c3ccnc(N4CCn5c(cc6c5CC(C)(C)C6)C4=O)c3CO)cn(C)c2=O)nc1 (stereo partly drawn) [Compound 45] |
| 1 to 10 | C[C@H]1CN(C(=O)NCCOCCOCCOCCCc2cccc3c2CN(C2CCC(=O)NC2=O)C3=O)CCN1c1ccc(Nc2cc(-c3ccnc(N4CCn5c(cc6c5CC(C)(C)C6)C4=O)c3CO)cn(C)c2=O)nc1 (stereo partly drawn) [Compound 47] |

Second part, the compound before the results:

| SMILES | DC50 [nM] |
| --- | --- |
| C[C@H]1CN(C(=O)[C@H]2C[C@@H](OCCNc3cccc4c3C(=O)N(C3CCC(=O)NC3=O)C4=O)C2)CCN1c1ccc(Nc2cc(-c3ccnc(N4CCn5c(cc6c5CC(C)(C)C6)C4=O)c3CO)cn(C)c2=O)nc1 (stereo partly drawn) [Compound 25] | < 1 |
| C[C@H]1CN(C(=O)CCCN2CCN(c3cc4c(cc3F)C(=O)N(C3CCC(=O)NC3=O)C4=O)CC2)CCN1c1ccc(Nc2cc(-c3ccnc(N4CCn5c(cc6c5CC(C)(C)C6)C4=O)c3CO)cn(C)c2=O)nc1 (stereo partly drawn) [Compound 58] | 1 to 10 |
| C[C@H]1CN(CCOCCOCCOCCOCCOCCNc2cccc3c2C(=O)N(C2CCC(=O)NC2=O)C3=O)CCN1c1ccc(Nc2cc(-c3ccnc(N4CCn5c(cc6c5CC(C)(C)C6)C4=O)c3CO)cn(C)c2=O)nc1 (stereo partly drawn) [Compound 39] | 1 to 10 |
| CN[C@@H](C)C(=O)N[C@H](C(=O)N1CCC[C@H]1c1nc(C(=O)c2cccc(OCCOCCC(=O)N3CCn4nc(Nc5cc(-c6ccnc(-n7ncc8cc(C(C)(C)C)cc(F)c8c7=O)c6CO)cn(C)c5=O)cc4C3)c2)cs1)C1CCCCC1 [Compound 6, (S)—N—((S)-2-((S)-2-(4-(3-(2-(3-(2-((2′-(6-(tert-butyl)-8-fluoro-1-oxophthalazin-2(1H)-yl)-3′-(hydroxymethyl)-1-methyl-6-oxo-1,6-dihydro-[3,4′-bipyridin]-5-yl)amino)-6,7-dihydropyrazolo[1,5-a]pyrazin-5(4H)-yl)-3-oxopropoxy)ethoxy)benzoyl)thiazol-2-yl)pyrrolidin-1-yl)-1-cyclohexyl-2-oxoethyl)-2-(methylamino)propanamide] | 10 to 1000 |
| CN[C@@H](C)C(=O)N[C@H](C(=O)N1CCC[C@H]1c1nc(C(=O)c2cccc(OCCOCCOCCOCCC(=O)N3CCn4nc(Nc5cc(-c6ccnc(-n7ncc8cc(C(C)(C)C)cc(F)c8c7=O)c6CO)cn(C)c5=O)cc4C3)c2)cs1)C1CCCCC1 (stereo in doubt) [Compound 7, (S)—N—((S)-2-((S)-2-(4-(3-(2-(2-(2-(3-(2-((2′-(6-(tert-butyl)-8-fluoro-1-oxophthalazin-2(1H)-yl)-3′-(hydroxymethyl)-1-methyl-6-oxo-1,6-dihydro-[3,4′-bipyridin]-5-yl)amino)-6,7-dihydropyrazolo[1,5-a]pyrazin-5(4H)-yl)-3-oxopropoxy)ethoxy)ethoxy)ethoxy)benzoyl)thiazol-2-yl)pyrrolidin-1-yl)-1-cyclohexyl-2-oxoethyl)-2-(methylamino)propanamide] | 10 to 1000 |
| Cn1cc(-c2ccnc(-n3ncc4cc(C(C)(C)C)cc(F)c4c3=O)c2CO)cc(Nc2cc3n(n2)CCN(CCCCc2cccc4c2CN(C2CCC(=O)NC2=O)C4=O)C3)c1=O (stereo not drawn) [Compound 18] | 1 to 10 |
| C[C@H]1CN(C(=O)CCOCCN2CCN(CCOCCOCCNc3cccc4c3C(=O)N(C3CCC(=O)NC3=O)C4=O)CC2)CCN1c1ccc(Nc2cc(-c3ccnc(N4CCn5c(cc6c5CC(C)(C)C6)C4=O)c3CO)cn(C)c2=O)nc1 (stereo partly drawn) [Compound 42] | 10 to 1000 |
| Cn1cc(-c2ccnc(-n3ncc4cc(C(C)(C)C)cc(F)c4c3=O)c2CO)cc(Nc2cc3n(n2)CCN(C(=O)CCNc2cccc4c2C(=O)N(C2CCC(=O)NC2=O)C4=O)C3)c1=O (stereo not drawn) [Compound 10] | 10 to 1000 |
| Cn1cc(-c2ccnc(-n3ncc4cc(C(C)(C)C)cc(F)c4c3=O)c2CO)cc(Nc2cc3n(n2)CCN(C(=O)CCOCCCc2cccc4c2C(=O)N(C2CCC(=O)NC2=O)C4=O)C3)c1=O (stereo not drawn) [Compound 21] | 10 to 1000 |
| Cn1cc(-c2ccnc(-n3ncc4cc(C(C)(C)C)cc(F)c4c3=O)c2CO)cc(Nc2cc3n(n2)CCN(C(=O)CCCc2cccc4c2CN(C2CCC(=O)NC2=O)C4=O)C3)c1=O (stereo not drawn) [Compound 13] | 10 to 1000 |
| CN[C@@H](C)C(=O)N[C@H](C(=O)N1C[C@@H](NC(=O)CCOCCC(=O)N2CCn3nc(Nc4cc(-c5ccnc(-n6ncc7cc(C(C)(C)C)cc(F)c7c6=O)c5CO)cn(C)c4=O)cc3C2)C[C@H]1C(=O)N[C@@H]1CCCc2ccccc21)C1CCCCC1 [Compound 4, (2S,4S)-4-(3-(3-(2-((2′-(6-(tert-butyl)-8-fluoro-1-oxophthalazin-2(1H)-yl)-3′-(hydroxymethyl)-1-methyl-6-oxo-1,6-dihydro-[3,4′-bipyridin]-5-yl)amino)-6,7-dihydropyrazolo[1,5-a]pyrazin-5(4H)-yl)-3-oxopropoxy)propanamido)-1-((S)-2-cyclohexyl-2-((S)-2-(methylamino)propanamido)acetyl)—N—((R)-1,2,3,4-tetrahydronaphthalen-1-yl)pyrrolidine-2-carboxamide] | 10 to 1000 |
| Cn1cc(-c2ccnc(-n3ncc4cc(C(C)(C)C)cc(F)c4c3=O)c2CO)cc(Nc2cc3n(n2)CCN(C(=O)CN2CCN(CCCc4cccc5c4C(=O)N(C4CCC(=O)NC4=O)C5=O)CC2)C3)c1=O (stereo not drawn) [Compound 14] | 1 to 10 |
| C[C@H]1CN(C(=O)CCOCCOCCOCCOCCNc2cccc3c2C(=O)N(C2CCC(=O)NC2=O)C3=O)CCN1c1ccc(Nc2cc(-c3ccnc(N4CCn5c(cc6c5CC(C)(C)C6)C4=O)c3CO)cn(C)c2=O)nc1 (stereo partly drawn) [Compound 51] | 1 to 10 |
| Cn1cc(-c2ccnc(-n3ncc4cc(C(C)(C)C)cc(F)c4c3=O)c2CO)cc(Nc2cc3n(n2)CCN(C(=O)CNc2cccc4c2C(=O)N(C2CCC(=O)NC2=O)C4=O)C3)c1=O (stereo not drawn) [Compound 12] | 1 to 10 |
| Cn1cc(-c2ccnc(-n3ncc4cc(C(C)(C)C)cc(F)c4c3=O)c2CO)cc(Nc2cc3n(n2)CCN(C(=O)CN2CCN(CCc4cccc5c4CN(C4CCC(=O)NC4=O)C5=O)CC2)C3)c1=O (stereo not drawn) [Compound 22] | 10 to 1000 |
